Here are results for seven compounds from publication PMC3401595 (Bioorganic & medicinal chemistry, 2012).

One experiment concerns the target δ opioid receptor (Homo sapiens, UniProt P41143). In words: biochemical. The experiment is classed as binding.
For experiment [1] the following is noted: systemic administration; greater than I; cited from earlier work.
The conditions of experiment [2]: higher than I; cited from earlier work.
The conditions of experiment [3]: higher than I; cited from earlier work. The source holds these as a separate data set.

δ opioid receptor, sequence (P41143 whole entry): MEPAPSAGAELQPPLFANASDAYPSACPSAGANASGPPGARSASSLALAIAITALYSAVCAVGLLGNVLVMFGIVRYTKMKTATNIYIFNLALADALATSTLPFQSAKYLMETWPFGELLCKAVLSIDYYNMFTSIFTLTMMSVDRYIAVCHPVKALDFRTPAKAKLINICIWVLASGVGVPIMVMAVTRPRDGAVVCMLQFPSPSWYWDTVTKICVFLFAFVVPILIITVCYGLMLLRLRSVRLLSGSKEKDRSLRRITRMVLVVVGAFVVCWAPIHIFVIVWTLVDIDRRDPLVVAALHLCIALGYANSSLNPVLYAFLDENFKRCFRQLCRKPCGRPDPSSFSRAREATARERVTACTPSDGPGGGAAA

A word on the Ki: it is the equilibrium dissociation constant of an inhibitor or competing ligand from its target. For `CCCCN(CCCC)CCOC/C=C/c1ccccc1` [Compound 17, 2-(Cinnamyloxy)-N,N-dibutylethanamine], the inhibitory constant (Ki) at δ opioid receptor was > 10 µM. On to `CCCCN(CCCC)CCOCCCc1ccccc1` [Compound 18, N,N-dibutyl-2-(3-phenylpropoxy)ethanamine], for which the inhibition constant Ki at δ opioid receptor was > 10 µM. With `CN(CCOC/C=C/c1ccccc1)Cc1ccccc1` [Compound 33, N-benzyl-2-(cinnamyloxy)-N-methylethanamine], at δ opioid receptor, the Ki was > 10 µM.

Regarding `CN(CCOCCCc1ccccc1)Cc1ccccc1` [Compound 34, N-benzyl-N-methyl-2-(3-phenylpropoxy)ethanamine], on δ opioid receptor, the Ki is > 10 µM. Turning to `CN(CCCc1ccccc1)CCOC/C=C/c1ccccc1` [Compound 37, 2-(Cinnamyloxy)-N-methyl-N-phenylpropylethanamine], on δ opioid receptor, the inhibitory constant (Ki) is > 10 µM.

For `CO[C@@]12CCC(=O)[C@]3(C)Oc4c(O)ccc5c4[C@@]31CCN(C)[C@@H]2C5` [II, 14-methoxymetopon], in experiment [1], the “systemic antinociceptive potency relative to I (morphine)” value was 500 fold.

As to `CN1CCC23c4c5ccc(O)c4OC2(C)C(=O)CCC3(OCCCc2ccccc2)C1C5` (centres unmarked) [III, 14-phenylpropyloxymetopon], in experiment [2], the “potency in the tail flick assay as compared to I (morphine)” value is given as 24000 fold. Also, the “potency in the hot plate assay as compared to I (morphine)” value in experiment [3] was 8500 fold.
